Test results: patent US9241991B2, “Agents, compositions, and methods for treating pruritus and related skin conditions” (The Brigham and Women's Hospital, Inc., priority 2010, dated 2016)

Assays:
TRPV1 = TRPV1 (Mus musculus, UniProt Q704Y3); experiment: Resiniferatoxin pretreatment: heat sensitivity, imiquimod-induced scratches, TLR7+ skin fibers; type: in vivo, mice; design: central terminals of TRPV1-expressing nociceptors; from tissue; host or cells: mouse lumbar spinal cord slices (L4-L5); live mice (intrathecal capsaicin, resiniferatoxin pretreatment)
Chain of TRPV1 (Q704Y3 whole entry): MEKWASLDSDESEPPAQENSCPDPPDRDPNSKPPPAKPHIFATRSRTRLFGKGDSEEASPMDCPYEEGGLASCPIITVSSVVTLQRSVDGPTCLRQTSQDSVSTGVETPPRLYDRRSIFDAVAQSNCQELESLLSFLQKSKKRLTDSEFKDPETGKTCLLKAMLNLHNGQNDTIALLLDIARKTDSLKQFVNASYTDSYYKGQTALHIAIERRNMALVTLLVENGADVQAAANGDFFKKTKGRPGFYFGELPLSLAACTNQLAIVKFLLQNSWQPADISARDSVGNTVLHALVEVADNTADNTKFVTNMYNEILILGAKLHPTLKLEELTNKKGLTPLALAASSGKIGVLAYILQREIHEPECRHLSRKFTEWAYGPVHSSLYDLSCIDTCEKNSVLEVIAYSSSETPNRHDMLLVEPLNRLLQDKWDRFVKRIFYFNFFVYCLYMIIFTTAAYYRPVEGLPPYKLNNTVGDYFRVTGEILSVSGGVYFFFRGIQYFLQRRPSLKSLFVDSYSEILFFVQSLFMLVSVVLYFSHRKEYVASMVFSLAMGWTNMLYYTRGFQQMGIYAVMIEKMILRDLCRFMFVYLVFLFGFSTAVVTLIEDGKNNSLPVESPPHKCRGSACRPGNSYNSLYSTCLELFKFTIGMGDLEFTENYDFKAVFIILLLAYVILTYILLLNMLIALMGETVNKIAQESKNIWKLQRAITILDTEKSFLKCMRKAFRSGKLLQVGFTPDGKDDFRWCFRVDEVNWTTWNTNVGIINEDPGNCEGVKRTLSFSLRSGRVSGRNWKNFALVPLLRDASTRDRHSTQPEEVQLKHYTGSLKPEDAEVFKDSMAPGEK
Source text: C-fibers, express transient receptor potential subtype V1 (TRPV1) and are indispensable for itch sensation by various pruritogens (Imamachi, N. et al. Proc. Natl. Acad. Sci. U.S. A 106, 11330-11335 (2009)). […] Thus, TRPV1-expressing C-fibers but not TRPV1 per se are required for imiquimod-elicited itch. We also tested itch responses in mast cell-deficient SASH mice (Liu, Q. et al. Cell 139, 1353-1365 (2009)) and only found a moderate reduction (28%) in imiquimod-induced scratching (FIG. 12c).

DRG neurons = experiment: Calcium imaging from cultured DRG neurons; type: cell-based; conditions: wild-type mice DRG neurons
Experimental: DRGs from all spinal levels of 4-week old mice were collected in cold DH10 (90% DMEM/F-12, 10% FBS, 100 U/ml penicillin, and 100 μg/ml Streptomycin, Gibco) and treated with enzyme solution (5 mg/ml Dispase, 1 mg/ml Collagenase Type I in HPBS without Ca^++ and Mg^++, Gibco) at 37° C. Following trituration and centrifugation, cells were resuspended in DH10, plated on glass cover slips coated with poly-D-lysine (0.5 mg/ml, Stoughton, Mass.) and laminin (10 μg/ml, Invitrogen), cultured in an incubator ([…] and 5% CO2) at 37° C. and used within 24 hours. Neurons were loaded with Fura 2-acetomethoxy ester (Molecular Probes) for 30 min in the dark at room temperature. After washing, cells were imaged at 340 and 380 nm excitation to detect intracellular free calcium. To compare the response to histamine, chloroquine, and capsaicin between WT and Tlr3-deficient DRG neurons, calcium imaging assays were performed with an experimenter blind to genotype (n=3 per genotype), and the percentages of DRG neurons showing calcium responses were determined as we previously described (23).

TLR7 [1] = experiment: Scratches after intradermal injection in the nape of the neck, WT and Tlr7-/- mice; type: in vivo; conditions: for dose response curve of scratching: intradermal injection, nape
Source text: We next evaluated whether TLR7 plays a role in itch sensation. We counted the number of scratches (bouts) by a hindpaw of mouse following intradermal injection of pruritogenic agents in the nape of the neck.

TLR7 [2] = target: T1, TLR7 (Mus musculus, UniProt P58681); experiment: Cheek model of itch versus pain, TLR7 ligands; type: in vivo, mice; conditions: 20 μg intradermal into the cheek
T1 construct: We found functional TLR7 receptors in small-size DRG neurons; from tissue; host or cells: small DRG neurons of mice; nape and cheek skin of live mice (C57BL/6J background, CD1)
T1 sequence (P58681 27-1050): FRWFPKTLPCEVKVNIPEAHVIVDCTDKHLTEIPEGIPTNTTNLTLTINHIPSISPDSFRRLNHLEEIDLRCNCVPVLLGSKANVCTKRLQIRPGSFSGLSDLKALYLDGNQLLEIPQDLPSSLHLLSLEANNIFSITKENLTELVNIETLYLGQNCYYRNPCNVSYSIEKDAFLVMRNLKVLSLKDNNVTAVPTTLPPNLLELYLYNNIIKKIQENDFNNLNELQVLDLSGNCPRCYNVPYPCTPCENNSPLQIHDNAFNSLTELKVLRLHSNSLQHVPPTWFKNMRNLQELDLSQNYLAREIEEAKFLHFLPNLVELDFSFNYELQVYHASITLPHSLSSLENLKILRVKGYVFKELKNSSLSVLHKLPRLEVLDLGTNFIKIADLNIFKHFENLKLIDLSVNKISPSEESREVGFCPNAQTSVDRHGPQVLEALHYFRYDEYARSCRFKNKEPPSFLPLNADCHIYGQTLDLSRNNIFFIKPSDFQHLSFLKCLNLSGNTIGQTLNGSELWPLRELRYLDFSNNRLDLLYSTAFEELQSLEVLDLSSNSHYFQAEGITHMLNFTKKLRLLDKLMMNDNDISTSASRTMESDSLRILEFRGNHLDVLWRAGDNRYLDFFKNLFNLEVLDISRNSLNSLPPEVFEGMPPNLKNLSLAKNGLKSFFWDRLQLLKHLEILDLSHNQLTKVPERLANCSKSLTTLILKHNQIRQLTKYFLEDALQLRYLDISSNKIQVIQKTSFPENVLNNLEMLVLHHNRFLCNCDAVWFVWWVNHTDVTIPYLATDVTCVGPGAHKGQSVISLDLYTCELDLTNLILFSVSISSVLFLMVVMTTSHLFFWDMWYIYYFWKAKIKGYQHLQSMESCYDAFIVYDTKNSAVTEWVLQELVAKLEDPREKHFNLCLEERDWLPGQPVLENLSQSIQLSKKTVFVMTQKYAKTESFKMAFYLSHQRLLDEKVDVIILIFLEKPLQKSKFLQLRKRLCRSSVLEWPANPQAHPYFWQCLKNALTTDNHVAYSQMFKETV
Experimental: To distinguish itch and pain responses simultaneously, we used the cheek model by injection of chemical into cheek of mice (8). After brief anesthesia with isoflurane, we shaved mice on cheeks (approx. 5×8 mm area) two days before experiments. On the day of experiment, we injected 10 μl of reagent (50 μg compound 48/80 or 100 μg chloroquine) into the cheek and counted the number of wipes and the number of scratches for 30 min. We only counted those unilateral wipes with the forelimb that were not part of grooming behavior. One scratch was defined as a lifting of the hind paw toward the injection site on the cheek and then returning the paw to the floor or to the mouth.
To further investigate a unique role of TLR7 in itch versus pain, we used a recently developed “cheek model” of itch (Shimada, S. G. & LaMotte, R. H. Pain 139, 681-687 (2008)).

C=C(C)[C@]12C[C@@H](C)[C@@]34O[C@](Cc5ccccc5)(O[C@@H]1[C@@H]3C=C(COC(=O)Cc1ccc(O)c(OC)c1)C[C@]1(O)C(=O)C(C)=C[C@@H]41)O2 [RTX, resiniferatoxin]
heat sensitivity after pretreatment (TRPV1; RTX pretreatment): loss of heat sensitivity | imiquimod-induced scratches after pretreatment (TRPV1; RTX pretreatment): almost abolished | TLR7+ fibers in the skin (TRPV1; RTX treatment): ablated

CCN(CC)CCCC(C)Nc1ccnc2cc(Cl)ccc12 (centres unmarked) [chloroquine]
neurons with intracellular Ca2+ increases (DRG neurons): 5% | TLR7 dependence of scratching at the highest dose (TLR7 [1]; 600 μg): TLR7-independent | dose response curve of scratching (TLR7 [1]): bell-shaped dose response curve

NCCc1c[nH]cn1 [histamine]
neurons with intracellular Ca2+ increases (DRG neurons): 10%

C=CCn1c(=O)n([C@@H]2O[C@H](CO)[C@@H](O)[C@H]2O)c2nc(N)[nH]c(=O)c21 [loxoribine]
itch-like scratching in cheek model (TLR7 [2]): elicited itch-like scratching | pain-indicative wiping in cheek model (TLR7 [2]): not pain-indicative wiping behavior | dose response curve of scratching (TLR7 [1]): inverted-U-shaped dose response curve | scratches in Tlr7-/- mice versus WT (TLR7 [1]; intradermal, 100 μg): reduced
